Measured values from patent US4680293A, “3-imidazolylalkyl-, triazolylalkyl-, pyridinylalkyl-1,2,3-benzotriazin-4(3H)-ones and derivatives thereof” (American Cyanamid Company, priority 1986, dated 1987).

Target: T1, thromboxane synthetase (Rattus norvegicus, UniProt P49430)
T1 sequence (P49430 1-533): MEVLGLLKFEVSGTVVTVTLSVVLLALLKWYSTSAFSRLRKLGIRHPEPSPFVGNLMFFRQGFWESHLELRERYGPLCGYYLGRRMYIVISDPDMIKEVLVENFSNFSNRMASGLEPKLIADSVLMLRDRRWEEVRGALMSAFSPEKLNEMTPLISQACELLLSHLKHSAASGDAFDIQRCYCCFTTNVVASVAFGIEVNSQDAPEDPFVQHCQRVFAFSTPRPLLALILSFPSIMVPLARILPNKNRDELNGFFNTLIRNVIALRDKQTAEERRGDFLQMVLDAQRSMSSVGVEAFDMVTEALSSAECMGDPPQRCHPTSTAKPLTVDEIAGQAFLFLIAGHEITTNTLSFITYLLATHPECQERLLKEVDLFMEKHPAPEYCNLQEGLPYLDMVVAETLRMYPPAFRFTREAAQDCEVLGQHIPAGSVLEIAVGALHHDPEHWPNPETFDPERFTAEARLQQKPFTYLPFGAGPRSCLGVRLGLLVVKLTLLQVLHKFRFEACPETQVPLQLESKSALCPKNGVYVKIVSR
Assay: Inhibition of thromboxane formation in washed SHR platelets (TXB2 by direct radioimmunoassay)
Settings: read-out: % Inhibition (of TXB2 formation), drug at 10^-4 M, 10 minutes at 37° C.
Method: From Okamoto-Aoki spontaneously hypertensive rats (SHR) (Taconic Farms, Germantown, NY) between 19 and 24 weeks in age, under urethane anesthesia, 10 μl of arterial blood was collected in one ml of 3.2% sodium citrate in a polystyrene tube. The blood was diluted with 3 ml cold saline and centrifuged at room temperature for 15 minutes at 460×g. The platelet rich plasma (PRP) was separated. The platelets were isolated by centrifuging the PRP for 10 minutes at 1060×g and were washed in 4 ml cold oxygenated Krebs phosphate buffer, pH 7.4. The chilled platelets recovered from centrifuging at 800×g for 10 minutes were resuspended in oxygenated Krebs phosphate buffer and diluted to contain 4.5-6.0×10^4 platelets/μl.
The inhibition of thromboxane (TX) formation was studied by determining the concentration of thromboxane B2 (TXB2), the stable hydrolysis product of TXA2. Assay samples, prepared on ice, contained 200 μl platelet suspension, 50 μl saline, and 50 μl vehicle or drug under study at a concentration of 10^-4 M (with OKY-1581, UK-37248-01, 1-benzylimidazole, and/or indomethacin used as standards). […] The TXB2 content for each sample was determined by a direct radioimmunoassay (RIA) utilizing a TXB2 specific RIA kit purchased from New England Nuclear, Boston, MA and results expressed as pg TXB2 formed minute^-1 sample^- 1, from which the percent inhibition of TXB2 formation was calculated.

| inhibition at 100 µM [%] | Structure (SMILES) |
| --- | --- |
| 97 | CC(Cn1ccnc1)Cn1nnc2ccc(Cl)cc2c1=O (centres unmarked) [6-Chloro-3-[3-(1H-imidazol-1-yl)-2-methylpropyl]-1,2,3-benzotriazin-4(3H)-one] |
| 79 | O=c1c2cc(Cl)ccc2nnn1CCCCn1ccnc1 |
